Data as given in patent publication US7507708B2, “Antitumoral compounds” (Pharma Mar, S.A.U., priority 2003, dated 2009).

Assays:
A-549 = test: In vitro cytotoxic activity, SRB assay; assay type: cell-based, human; settings: A-549, 48 hours exposure; for CC50: read-out: LC50 (the source's name)
From the text: (§1) Plates are washed with deionized water and dried.

DU-145 = test: In vitro cytotoxic activity, SRB assay; assay type: cell-based, human; settings: DU-145, 48 hours exposure
From the text: as §1

HELA-APL = test: In vitro cytotoxic activity, SRB assay; assay type: cell-based, human; settings: 48 hours exposure; for CC50: read-out: LC50 (the source's name)
From the text: as §1

HT-29 = test: In vitro cytotoxic activity, SRB assay; assay type: cell-based, human; settings: HT-29, 48 hours exposure; for CC50: read-out: LC50 (the source's name)
From the text: as §1

IGROV-ET = test: In vitro cytotoxic activity, SRB assay; assay type: cell-based, human; settings: 48 hours exposure
From the text: as §1

IGROV = test: In vitro cytotoxic activity, SRB assay; assay type: cell-based, human; settings: 48 hours exposure
From the text: as §1

K-562 = test: In vitro cytotoxic activity, SRB assay; assay type: cell-based, human; settings: K-562, 48 hours exposure
From the text: as §1

LN-caP = test: In vitro cytotoxic activity, SRB assay; assay type: cell-based, human; settings: 48 hours exposure
From the text: as §1

LOVO-DOX = test: In vitro cytotoxic activity, SRB assay; assay type: cell-based, human; settings: 48 hours exposure
From the text: as §1

LOVO = test: In vitro cytotoxic activity, SRB assay; assay type: cell-based, human; settings: 48 hours exposure
From the text: as §1

MEL-28 = test: In vitro cytotoxic activity, SRB assay; assay type: cell-based, human; settings: MEL-28, 48 hours exposure
From the text: as §1

PANC-1 = test: In vitro cytotoxic activity, SRB assay; assay type: cell-based, human; settings: PANC-1, 48 hours exposure
From the text: as §1

SK-BR-3 = test: In vitro cytotoxic activity, SRB assay; assay type: cell-based, human; settings: SK-BR-3, 48 hours exposure; for CC50: read-out: LC50 (the source's name)
From the text: as §1

HELA = test: In vitro cytotoxic activity, SRB assay; settings: for CC50: read-out: LC50, 48 hours exposure
Method: The finality of these assays is to interrupt the growth of a “in vitro” tumor cell culture by means a continued exhibition of the cells to the sample to be testing.
Most of the cell lines are obtained from American Type Culture Collection (ATCC) derived from different human cancer types.
Cells are maintained in RPMI 1640 10% FBS, supplemented with 0.1 g/l penicillin and 0.1 g/l streptomycin sulfate and then incubated at 37° C., 5% CO2 and 98% humidity. For the experiments, cells were harvested from subconfluent cultures using trypsin and resuspended in fresh medium before plating.
Cells are seeded in 96 well microtiter plates, at 5×10^3 cells per well in aliquots of 195 μl medium, and they are allowed to attach to the plate surface by growing in drug free medium for 18 hours. Afterward, samples are added in aliquots of 5 μl in a ranging from 10 to 10^−8 μg/ml, dissolved in DMSO/EtOH/PBS (0.5:0.5:99). After 48 hours exposure, the antitumor effect are measured by the SRB methodology: cells are fixed by adding 50 μl of cold 50% (wt/vol) trichloroacetic acid (TCA) and incubating for 60 minutes at 4° C. Plates are washed with deionized water and dried. One hundred μl of SRB solution (0.4% wt/vol in 1% acetic acid) is added to each microtiter well and incubated for 10 minutes at room temperature. Unbound SRB is removed by washing with 1% acetic acid. Plates are air dried and bound stain is solubilized with Tris buffer. Optical densities are read on a automated spectrophotometric plate reader at a single wavelength of 490 nm.
The values for mean +/− SD of data from triplicate wells are calculated. Some parameters for cellular responses can be calculated: GI=growth inhibition, TGI=total growth inhibition (cytostatic effect) and LC=cell killing (cytotoxic effect).

[1] = test system: NRK-52E, normal rat kidney cell; test: In vitro toxicity to normal cells, MTS assay; assay type: cell-based; settings: 24 h
Method: (§3) In order to assess the cytotoxicity of the drugs to normal cells, we used 96 well plates plated at a density of 5000 cells per well with normal cell lines maintained as per the directions of the ATCC: AML-12, normal mouse liver cells and NRK-52E, normal rat kidney cell. The cells in each plate were permitted to settle overnight before adding the test drug. To each well (100 μl medium) 10 μl of drug in media was added at varying concentrations (1×10^−10-0.01 mg/ml final concentration) and further incubated overnight at 37° C. with 5% CO2. All experiments were repeated at least 3 times and were assayed in duplicate. After 24 h the MTS assay (CellTiter 96 aqueous) was performed according to the manufacturer's (Promega) directions (for all cell types). Cell viability (mitochondrial activity) is determined via enzymatic conversion of the formazan substrate.

In vivo MTD in CD-1 mice = settings: mouse, unit inferred; for MTD at 5 days: 5 daily doses; for MTD: intravenous, single bolus
Method: (§2) The Maximum Tolerated Dose is determined in CD-1 and athymic mice (both genders) for each drug after single bolus administration and after 5 dayly doses. The results are given in table IV, there is no significant difference between the compounds 5 methylhexanoic KF and (4S)-methylhexanoic KF.

[2] = In vivo MTD in athymic mice; settings: mouse; for MTD at 5 days: 5 daily doses; for MTD: intravenous, single bolus
Method: as §2

female mice = settings: cited from earlier work
[3] = test system: AML-12, normal mouse liver cells; test: In vitro toxicity to normal cells, MTS assay; settings: read-out: ALM Liver IC50, 24 h
Method: as §3

[4] = female CD-1 mice, read-out: Female CD-1 mice MTD 5DD
[5] = female CD-1 mice, read-out: Female CD-1 mice MTD Bolus
[6] = male CD-1 mice, read-out: Male CD-1 mice MTD Bolus
[7] = male CD-1 mice, read-out: Male CD-1 mice MTD 5DD
[8] = female athymic mice, no unit printed in table (325 μg/kg/day), read-out: Female athymic mice MTD 5DD
[9] = female athymic mice, unit inferred, read-out: Female athymic mice MTD Bolus
[10] = male athymic mice, unit inferred, read-out: Male athymic mice MTD Bolus
[11] = male athymic mice, unit inferred, read-out: Male athymic mice MTD 5DD

## C/C=C1\NC(=O)[C@H](Cc2ccccc2)NC(=O)[C@@H](C(C)C)NC(=O)[C@@H]([C@@H](C)CC)NC(=O)[C@H](NC(=O)[C@H](NC(=O)[C@H](CCCN)NC(=O)[C@H]2CCCN2C(=O)[C@H](NC(=O)[C@@H](NC(=O)[C@@H](NC(=O)[C@H](NC(=O)CC[C@H](C)CC)C(C)C)[C@@H](C)O)C(C)C)C(C)C)[C@@H](C)CC)[C@@H](C)OC(=O)[C@H](C(C)C)NC1=O [(4R)-methylhexanoic KF]
A-549
  GI50: 1200 nM
  TGI: 2.26E−06 Molar
  CC50: 4240 nM
DU-145
  GI50: 1200 nM
  LC50: 3820 nM
  TGI: 2.14E−06 Molar
HELA-APL
  GI50: 1560 nM
  TGI: 3.47E−06 Molar
  CC50: 6770 nM
HT-29
  GI50: 738 nM
  TGI: 1.54E−06 Molar
  CC50: 3220 nM
IGROV-ET
  GI50: 805 nM
  LC50: 3260 nM
  TGI: 1.62E−06 Molar
IGROV
  GI50: 941 nM
  LC50: 3500 nM
  TGI: 1.81E−06 Molar
K-562
  GI50: 3730 nM
  LC50 (50% lethal concentration): 6770 nM
  TGI: 6.77E−06 Molar
LN-caP
  GI50: 1500 nM
  LC50 (50% lethal concentration): 4040 nM
  TGI: 2.46E−06 Molar
LOVO-DOX
  GI50: 288 nM
  LC50: 2190 nM
  TGI: 7.71E−07 Molar
LOVO
  GI50: 248 nM
  LC50 (50% lethal concentration): 2280 nM
  TGI: 7.78E−07 Molar
MEL-28
  GI50: 1140 nM
  LC50: 3800 nM
  TGI: 2.09E−06 Molar
PANC-1
  GI50: 4700 nM
  LC50: 4240 nM
  TGI: 4.24E−06 Molar
SK-BR-3
  GI50: 1250 nM
  TGI: 2.20E−06 Molar
  CC50: 3860 nM
HELA; 48 hours exposure
  GI50: 1050 nM
  TGI: 1.93E−06 Molar
HELA
  CC50: 3550 nM

## C/C=C1\NC(=O)[C@H](Cc2ccccc2)NC(=O)[C@@H](C(C)C)NC(=O)[C@@H]([C@@H](C)CC)NC(=O)[C@H](NC(=O)[C@H](NC(=O)[C@H](CCCN)NC(=O)[C@H]2CCCN2C(=O)[C@H](NC(=O)[C@@H](NC(=O)[C@@H](NC(=O)[C@H](NC(=O)CCCC(C)C)C(C)C)[C@@H](C)O)C(C)C)C(C)C)[C@@H](C)CC)[C@@H](C)OC(=O)[C@H](C(C)C)NC1=O [5-methylhexanoic KF, reference compound]
A-549
  GI50: 866 nM
  CC50: 3780 nM
DU-145
  GI50: 751 nM
  LC50: 3600 nM
HELA-APL
  GI50: 1060 nM
  CC50: 4430 nM
HT-29
  GI50: 141 nM
  CC50: 562 nM
IGROV-ET
  GI50: 447 nM
  LC50: 3090 nM
IGROV
  GI50: 420 nM
  LC50: 3800 nM
K-562
  GI50: 1540 nM
  LC50 (50% lethal concentration): 5660 nM
LN-caP
  GI50: 961 nM
  LC50 (50% lethal concentration): 5570 nM
LOVO-DOX
  GI50: 162 nM
  LC50: 620 nM
LOVO
  GI50: 120 nM
  LC50 (50% lethal concentration): 428 nM
MEL-28
  GI50: 690 nM
  LC50: 3550 nM
PANC-1
  GI50: 1380 nM
  LC50: 6070 nM
SK-BR-3
  GI50: 398 nM
  CC50: 6770 nM
[1]
  IC50: 2700 nM
In vivo MTD in CD-1 mice; [4]
  MTD at 5 days: 0.175 to 0.35 mg/kg
In vivo MTD in CD-1 mice; [5]
  MTD: 0.2 mg/kg
In vivo MTD in CD-1 mice; [6]
  MTD: 0.3 mg/kg
In vivo MTD in CD-1 mice; [7]
  MTD at 5 days: 0.175 to 0.35 mg/kg
[2]; [8]
  MTD at 5 days: 0.325 mg/kg
[2]; [9]
  MTD: 0.325 mg/kg
[2]; [10]
  MTD: 0.35 mg/kg
[2]; [11]
  MTD at 5 days: 0.35 mg/kg
Female mice; 280 μg/kg, once daily times five schedule
  tolerability of repeated administration: without any apparent evidence of acute toxicity
Female mice; female mice, single bolus iv injection
  maximum tolerated dose (MTD): 0.28 mg/kg
HELA; 48 hours exposure
  GI50: 839 nM
HELA
  CC50: 4260 nM
[3]
  IC50: 3400 nM

## C/C=C1\NC(=O)[C@H](Cc2ccccc2)NC(=O)[C@@H](C(C)C)NC(=O)[C@@H]([C@@H](C)CC)NC(=O)[C@H](NC(=O)[C@H](NC(=O)[C@H](CCCN)NC(=O)[C@H]2CCCN2C(=O)[C@H](NC(=O)[C@@H](NC(=O)[C@@H](NC(=O)[C@H](NC(=O)CC[C@@H](C)CC)C(C)C)[C@@H](C)O)C(C)C)C(C)C)[C@@H](C)CC)[C@@H](C)OC(=O)[C@H](C(C)C)NC1=O [(4S)-methylhexanoic KF, 4(S)-MeHex-D-Val-L-Thr-L-VaI-D-Val-D-Pro-L-Orn-D-allo-Ile-cyclo(D-allo-Thr-D-allo-Ile-D-Val-L-Phe-Z-Dhb-L-Val)]
A-549
  GI50: 267 nM
  CC50: 3090 nM
DU-145
  GI50: 237 nM
  LC50: 2490 nM
HELA-APL
  GI50: 1040 nM
  CC50: 4390 nM
HT-29
  GI50: 301 nM
  CC50: 2710 nM
IGROV-ET
  GI50: 225 nM
  LC50: 2820 nM
IGROV
  GI50: 292 nM
  LC50: 2620 nM
K-562
  GI50: 2520 nM
  LC50 (50% lethal concentration): 6770 nM
LN-caP
  GI50: 1120 nM
  LC50 (50% lethal concentration): 5930 nM
LOVO-DOX
  GI50: 157 nM
  LC50: 677 nM
LOVO
  GI50: 163 nM
  LC50 (50% lethal concentration): 580 nM
MEL-28
  GI50: 1430 nM
  LC50: 4720 nM
PANC-1
  GI50: 6770 nM
  LC50: 6770 nM
SK-BR-3
  GI50: 181 nM
  CC50: 606 nM
[1]
  IC50: 2700 nM
In vivo MTD in CD-1 mice; [4]
  MTD at 5 days: 0.175 to 0.35 mg/kg
In vivo MTD in CD-1 mice; [5]
  MTD: 0.2 mg/kg
In vivo MTD in CD-1 mice; [6]
  MTD: 0.3 mg/kg
In vivo MTD in CD-1 mice; [7]
  MTD at 5 days: 0.175 to 0.35 mg/kg
[2]; [8]
  MTD at 5 days: 0.325 mg/kg
[2]; [9]
  MTD: 0.325 mg/kg
[2]; [10]
  MTD: 0.35 mg/kg
[2]; [11]
  MTD at 5 days: 0.35 mg/kg
HELA; 48 hours exposure
  GI50: 1180 nM
HELA
  CC50: 4970 nM
[3]
  IC50: 5400 nM
